Experimental data: patent US20230125429A1 (priority 2017, published 2023)
Several values for one entry are separate records, joined by “and”; a condition that tells them apart may be missing. Equal values may be shown once. Entries after “also recorded” stand apart in the source; their conditions may differ.

What was measured:
BGC823 = experiment: Growth inhibitory effect, one hour exposure (IncuCyte Zoom); format: cell-based, human; conditions: BGC823, Gastric cancer
Description: (§1) Cancer cell lines and immortalized human cell lines were cultured in 1640 tissue culture medium (Corning, USA) with 10% fetal bovine serum in a standard tissue culture condition of 37° C. and 5% CO2.
(§2) For primary hepatocytes, the seeded cells were monitored for up to 48 hours either without any treatment (as a control) or with various types of treatments. For primary keratinocytes, cells in 48-well plates were monitored either without any treatment or with various types of treatment for up to 96 hours. For HepG2, cells 96-well plates were monitored either without any treatment or with various types of treatments for up to 48 hours. The IncuCyte Zoom was set to take a set of images at fixed locations (4 per well for 96-well plates and 16 per well for 48-well plates and 12-well plates) every three hours.
(§3) The one-hour exposure is intended to simulate the transient high concentrations within the liver as the results of either the first pass effects of some orally administered drugs, or of locally delivered drugs, anticipating that such a short term exposure is nevertheless sufficient to affect certain cell surface receptors without causing any significant off-target effects due to intracellular absorption. Such a strategy would also reduce false hits due to reversible cell cycle arrests.
(§4) To address this possibility, we investigated whether other cell lines, including other HCC cell lines, cell lines from other type of cancers, as well as non-cancer immortalized/transformed cell lines, were also sensitive to Triptonide. Specifically, a total of 51 human cancer cell lines, representing 10 types of human cancers (6 non-small cell lung cancer cell lines, 5 colon cancer cell lines, 5 central nerve system cancer cell lines, 8 Melanomas cell lines, 4 ovarian cancer cell lines, 4 renal cancer cell lines, 2 prostate cancer cell lines, 3 breast cancer cell lines, 7 hepatocellular carcinoma cell lines, and 4 gastric cancer cell lines) were analyzed.

DU-145 = experiment: as above; format: cell-based, human; conditions: DU-145, Prostate
Description: as §1, §2, §3, §4

EKVX = experiment: as above; format: cell-based, human; conditions: Non-Small Cell Lung
Description: as §1, §2, §3, §4

HepG2 [1] = experiment: as above; format: cell-based, human
Description: as §1, §2, §3, §4

MCP7 = experiment: as above; format: cell-based, human; conditions: MCP7, Breast
Description: as §1, §2, §3, §4

MGC803 = experiment: as above; format: cell-based, human; conditions: MGC803, Gastric cancer
Description: as §1, §2, §3, §4

NCI-H460 = experiment: as above; format: cell-based, human; conditions: NCI-H460, Non-Small Cell Lung
Description: as §1, §2, §3, §4

OVCAR-8 = experiment: as above; format: cell-based, human; conditions: OVCAR-8, Ovarian
Description: as §1, §2, §3, §4

SNB-19 = experiment: as above; format: cell-based, human; conditions: SNB-19, CNS
Description: as §1, §2, §3, §4

UACC-62 = experiment: as above; format: cell-based, human; conditions: UACC-62, Melanoma
Description: as §1, §2, §3, §4

[2] = system: 51 human cancer cell lines; experiment: Growth inhibitory effect, one hour exposure, whole panel; format: cell-based; conditions: mean over the 51 cancer cell lines
Description: as §1
as §2, with “The IncuCyte Zoom was set to take a set of images at fixed locations (4 per well for 96-well plates and 16 per well for 48-well plates and 12-well plates) every three hours.” left out
as §4

LO2 = experiment: Growth inhibitory effect, one hour exposure (IncuCyte Zoom); format: cell-based, human; conditions: LO2, immortalized hepatocytes
HepG2 [3] = format: cell-based, human
[4] = system: mimosine treated HepG2 cells; experiment: Cell cycle analysis by flow cytometry (PI staining); format: cell-based, human; conditions: for G2/M cells: 1 µM
wild-type keratinocytes [5] = experiment: Growth of wild-type primary keratinocytes, short-term treatment; format: cell-based, mouse
wild-type keratinocytes [6] = experiment: Growth of wild-type primary keratinocytes, continuous exposure; format: cell-based, mouse
Description: For the neonatal mouse keratinocyte culture, the dorsal skins of neonatal wild type or Par2 knockout mice were harvested from wild type or Par2 knockout mice, respectively. The skins were incubated overnight at 4° C. in a 0.25% solution of trypsin (Life Technologies, USA) in phosphate-buffered saline (PBS) without calcium and magnesium. The epidermis was then separated from the adjoining dermis, and the dispersed epidermal cells were collected in suspension Eagle’s minimal essential medium (SMEM) (Life Technologies, USA) supplemented with glutamine and 8% calcium free fetal calf serum (FCS) (Life Technologies, USA). The cells were plated onto individual wells of 48 well plates (Corning, USA), which were pre-coated with collagen (Life Technologies, USA), at a density of 70,000 cells/well. The cell cultures were kept for 12 hours at 34° C. in a humidified incubator containing 8% CO2. Low calcium (0.05 mM) S-MEM, containing 8% FCS was then added to initiate the culture. The culture medium was changed every 2 days.
as §2
To address this question, we took a genetic approach.

ERK phosphorylation = ERK phosphorylation in HepG2 cells (Western blot); format: cell-based, human; conditions: serum-starved HepG2; trypsin 50 nM, Triptolide 1 µM, Triptonide 1 µM; 0-40 minutes
HepG2 cells = experiment: Blocking the AC-cAMP-PKA pathway, growth of HepG2 cells; format: cell-based, human
[7] = Lethal dose and maximum tolerable dose in mice; format: in vivo
Description: Thus, a second preliminary experiment was carried out in tumor-bearing nude mice to determine whether an antitumor effect could be achieved within the non-toxic range. […] Thus, the 25 mg/kg once every other day regimen was selected for the preclinical experiment. The volumes of individual tumors were assessed by bioluminescent imaging.
Thus, we first determined the lethal dose and the maximum tolerable dose (MTD) of Triptonide for mice based on a once every other day regimen. […] It is noted that once every other day might not be the optimal scheme. Nonetheless, we decided to begin with this scheme and the 25% value of the MTD, i.e. 25 mg/kg.

[8] = system: HepG2-based orthotopic xenograft tumor; parameters: species or system nude mice; conditions: mouse, in vivo
[9] = cited from earlier work
[10] = rodents, intraperitoneal injection

## CC(C)[C@]12O[C@H]1[C@@H]1O[C@@]13[C@@]1(C)CCC4=C(COC4=O)[C@@H]1C[C@@H]1O[C@@]13C2=O [Triptonide]
BGC823
  IC50: 10.4 µM
DU-145
  IC50: 2.38 µM
EKVX
  IC50: 2.38 µM
HepG2 [1]; 4 µM or higher for one hour
  effect on growth of HepG2: significant growth inhibition
HepG2 [1]; 16 µM and above, one hour
  effect on cell density of HepG2: apparent reduction in cell density
HepG2 [1]; HepG2, Hepatocellular carcinoma, one hour exposure
  IC50: 7.5 µM and 7.51 µM
MCP7
  IC50: 0.592 µM
MGC803
  IC50: 2.58 µM
NCI-H460
  IC50: 8.44 µM
OVCAR-8
  IC50: 7.29 µM
SNB-19
  IC50: 51 µM
UACC-62
  IC50: 9.35 µM
[2]
  IC50: 7.31 µM and 7.66 µM
LO2
  IC50: 0.642 µM
HepG2 [3]
  effect of continuous exposure on HepG2: complete death
[4]; 11 hours after mimosine release
  G2/M cells: 82%
[4]; 24 hours after mimosine release
  G2/M cells: 80%
[4]; 37 hours after mimosine release
  G2/M cells: 78%
[4]; 10 µM, by 24 hours
  sub-G1 (<2N, apoptotic) population: significant peaks of the sub-G1
wild-type keratinocytes [5]
  IC50: 1.29 µM
  effect on growth of wild-type keratinocytes: effective in inhibiting the growth; also recorded: complete growth inhibition; also recorded: significant growth suppressive effect
wild-type keratinocytes [6]; continuous exposure
  growth inhibitory effect, wild-type versus Par2 knockout: more potent growth inhibitory effect on the Par2 wild-type PMHs than their Par2 knockout counterparts
wild-type keratinocytes [6]; long-term exposure, as low as 50 nM
  toxicity to Par2-expressing primary mouse keratinocytes: quite toxic
ERK phosphorylation
  levels of phosphorylated ERK: only an acute transient increase
HepG2 cells
  effect on growth of HepG2 cells: significant growth inhibitory effect
[7]; 100 mg/kg three times a day, four-hour interval, within four days
  mortality: all animals were dead
[7]; 200 mg/kg oral, once every other day, within four days
  death: 100%
[7]; up to 100 mg/kg oral, once every other day
  adverse effects: did not cause any significant adverse effects; also recorded: did not result in any significant adverse effects
[8]
  intensities of the tumor specific signal / tumor mass: very effective in reducing the tumor mass; also recorded: reduced the tumor specific signal to the background level
PMHs
  effect of continuous exposure on PMHs: complete death
  toxic effect on PMHs: no significant toxic effect
[9]; rodent, following an oral dosing
  change of plasma concentration on redistribution: several dozen folds of decrease
[9]; [10]
  T1/2 alpha: 0.17 to 0.195 h
  T1/2 beta: 4.95 to 6.49 h
